Assay results as given in patent US9611257B2, “PRMT5 inhibitors and uses thereof” (Epizyme, Inc., priority 2012, dated 2017).

Target: T1, PRMT5/MEP50 (Homo sapiens, UniProt O14744)
T1 construct: Expressed full-length human Flag-PRMT5/6His-MeP50 protein complex was purified; made in house; host or cells: Spodoptera frugiperda (SF9) insect cells, baculovirus (pDEST8)
Assay: PRMT5 Biochemical Assay (PRMT5/MEP50 enzyme assay on peptide substrate, 3H-SAM Flashplate)
Conditions: PRMT5/MEP50 4 nM, 3H-SAM 75 nM, peptide 40 nM, 30 min preincubation at 25 degrees Celsius
Experimental: • Mobile phase A: 4 L H2O\1.5 ml TFA; Mobile phase B: 4 L ACN\0.75 ml TFA • Column: HPLC-D: Innovation C18 UPLC Column 2.1×30 mm, 2.6 um • HPLC-E: Xtimate C18 2.1*30 mm*3 um • HPLC-H: Innovation C18 UPLC Column 2.1×30 mm, 2.6 um • Column temperature: 50° C.; Wavelength: 220 nm & 254 nm & 215 nm General HPLC Conditions (Basic) • Mobile phase A: 4 L H2O\2 ml NH4OH; Mobile phase B: Acetonitrile • Column: HPLC-B: XBridge C18 2.1*50 mm, 5 um • HPLC-C: Xbridge shield RP18 2.1*50 mm, 5 u • Column temperature: 30° C.; Wavelength: 220 nm & 254 nm & 215 nm General HPLC Conditions (Neutral) • Mobile phase A: H2O; Mobile phase B: Acetonitrile • Column: HPLC-B: XBridge C18 2.1*50 mm, 5 um • HPLC-C: Xbridge shield RP18 2.1*50 mm, 5 um • Column temperature: 30° C.; Wavelength: 220 nm & 254 nm & 215 nm Method A (0-30AB_6MIN) Flow Rate: 0.8 ml/min Gradient: 0% B to 30% B in 4.2 min, holding 30% B for 1 min, 30% B to 0% B in 0.01 min, holding 0% B for 1.09 min and then end. Method B (0-60AB_6MIN) • Flow Rate: 0.8 ml/min • Gradient: 0% B to 60% B in 4.2 min, holding 60% B for 1 min, 60% B to 0% B in 0.01 min, holding 0% B for 1.09 min and then end. Method C (10-80AB_6MIN) • Flow Rate: 0.8 ml/min • Gradient: 10% B to 80% B in 4.2 min, holding 80% B for 1 min, 80% B to 10% B in 0.01 min, holding 10% B for 1.09 min and then end. […]

T1 sequence (O14744 with tags, fused parts or gaps): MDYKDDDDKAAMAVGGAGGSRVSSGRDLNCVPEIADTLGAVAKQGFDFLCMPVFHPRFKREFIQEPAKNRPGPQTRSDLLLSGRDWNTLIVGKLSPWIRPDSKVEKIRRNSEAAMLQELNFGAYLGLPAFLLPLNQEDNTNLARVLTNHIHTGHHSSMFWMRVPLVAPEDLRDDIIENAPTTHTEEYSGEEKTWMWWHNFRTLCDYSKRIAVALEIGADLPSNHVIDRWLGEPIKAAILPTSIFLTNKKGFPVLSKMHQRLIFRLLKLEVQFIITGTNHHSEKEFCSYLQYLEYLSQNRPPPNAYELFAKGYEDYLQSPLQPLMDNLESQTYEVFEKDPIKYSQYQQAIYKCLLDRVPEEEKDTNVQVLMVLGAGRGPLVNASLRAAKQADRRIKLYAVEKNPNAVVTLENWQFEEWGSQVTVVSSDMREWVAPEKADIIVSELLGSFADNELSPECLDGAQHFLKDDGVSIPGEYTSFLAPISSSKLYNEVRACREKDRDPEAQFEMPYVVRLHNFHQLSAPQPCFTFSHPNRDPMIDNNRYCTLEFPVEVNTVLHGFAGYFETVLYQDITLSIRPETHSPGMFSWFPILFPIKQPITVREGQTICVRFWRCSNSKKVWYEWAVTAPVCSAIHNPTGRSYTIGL
T1 sequence (Q9BQA1 with tags, fused parts or gaps partner limits assumed): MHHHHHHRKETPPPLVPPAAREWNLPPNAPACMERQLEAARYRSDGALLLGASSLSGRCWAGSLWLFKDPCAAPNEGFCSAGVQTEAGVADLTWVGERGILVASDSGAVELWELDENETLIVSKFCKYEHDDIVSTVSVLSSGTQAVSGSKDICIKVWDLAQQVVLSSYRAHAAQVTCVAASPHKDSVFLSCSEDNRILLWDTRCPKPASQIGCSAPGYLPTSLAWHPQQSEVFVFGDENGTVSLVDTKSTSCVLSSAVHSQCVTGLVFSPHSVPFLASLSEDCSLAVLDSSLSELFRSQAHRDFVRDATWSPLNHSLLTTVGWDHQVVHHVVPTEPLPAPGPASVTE

IC50 | Structure (SMILES)
101 to 1000 nM | O=C(NC1CCOCC1)c1ccn(CC(O)CN2CCc3ccccc3C2)c(=O)c1 (centres unmarked) [Compound 33]
1000 to 10000 nM | O=C(NC1CCOCC1)c1cc(=O)n(CC(O)CN2CCc3ccccc3C2)cn1 (centres unmarked) [Compound 34]
